What was measured:
[1] = target: Cyclin-dependent kinase 5/CDK5 activator 1 (Homo sapiens) (UniProt Q00535+Q15078); assay: Inhibition of CDK5/p25 assessed as residual activity of enzyme at 25 uM; type: protein-complex assay
[2] = target: Casein kinase I isoform alpha (Homo sapiens) (UniProt P48729); assay: Inhibition of CK1 assessed as residual activity of enzyme at 10 uM
[3] = target: Mitogen-activated protein kinase kinase kinase 9 (Homo sapiens) (UniProt P80192); assay: Inhibition of MLK1 assessed as residual activity of enzyme at 25 uM
[4] = target: T1, Serine/threonine-protein kinase TAO3 (Homo sapiens) (UniProt Q9H2K8); assay: Inhibition of TAO3 assessed as residual activity of enzyme at 10 uM
T1 sequence (whole entry): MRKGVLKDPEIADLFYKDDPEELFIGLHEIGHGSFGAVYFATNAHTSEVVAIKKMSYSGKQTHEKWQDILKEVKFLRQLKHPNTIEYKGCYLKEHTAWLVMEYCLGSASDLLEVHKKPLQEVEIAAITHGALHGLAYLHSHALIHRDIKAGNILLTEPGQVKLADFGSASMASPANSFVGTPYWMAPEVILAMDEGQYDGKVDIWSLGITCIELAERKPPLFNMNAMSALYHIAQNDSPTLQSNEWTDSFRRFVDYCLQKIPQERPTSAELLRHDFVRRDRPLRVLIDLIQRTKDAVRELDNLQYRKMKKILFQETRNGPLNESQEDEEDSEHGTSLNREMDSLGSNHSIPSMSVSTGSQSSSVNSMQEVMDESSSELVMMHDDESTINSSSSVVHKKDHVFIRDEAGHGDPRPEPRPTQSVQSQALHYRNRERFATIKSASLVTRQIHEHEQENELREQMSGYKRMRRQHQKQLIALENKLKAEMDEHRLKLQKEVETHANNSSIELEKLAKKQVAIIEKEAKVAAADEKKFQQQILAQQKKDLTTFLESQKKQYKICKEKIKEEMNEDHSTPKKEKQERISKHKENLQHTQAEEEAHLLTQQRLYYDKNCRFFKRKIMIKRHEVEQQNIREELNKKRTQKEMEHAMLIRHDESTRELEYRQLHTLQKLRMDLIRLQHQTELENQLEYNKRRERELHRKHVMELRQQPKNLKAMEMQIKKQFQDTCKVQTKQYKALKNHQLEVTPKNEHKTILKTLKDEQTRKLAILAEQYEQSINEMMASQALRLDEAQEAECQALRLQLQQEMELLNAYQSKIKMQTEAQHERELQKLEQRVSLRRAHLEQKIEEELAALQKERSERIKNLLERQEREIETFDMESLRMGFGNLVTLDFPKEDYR

[5] = Neurotoxicity in rat primary cortical neurons assessed as cell survival at 10 uM after 24 hrs by MTT assay; type: toxicity, cell-based, Cerebral cortex neuron; details: read-out: Activity

Sequence of Mitogen-activated protein kinase kinase kinase 9 (Homo sapiens) (P80192 whole entry, looked up): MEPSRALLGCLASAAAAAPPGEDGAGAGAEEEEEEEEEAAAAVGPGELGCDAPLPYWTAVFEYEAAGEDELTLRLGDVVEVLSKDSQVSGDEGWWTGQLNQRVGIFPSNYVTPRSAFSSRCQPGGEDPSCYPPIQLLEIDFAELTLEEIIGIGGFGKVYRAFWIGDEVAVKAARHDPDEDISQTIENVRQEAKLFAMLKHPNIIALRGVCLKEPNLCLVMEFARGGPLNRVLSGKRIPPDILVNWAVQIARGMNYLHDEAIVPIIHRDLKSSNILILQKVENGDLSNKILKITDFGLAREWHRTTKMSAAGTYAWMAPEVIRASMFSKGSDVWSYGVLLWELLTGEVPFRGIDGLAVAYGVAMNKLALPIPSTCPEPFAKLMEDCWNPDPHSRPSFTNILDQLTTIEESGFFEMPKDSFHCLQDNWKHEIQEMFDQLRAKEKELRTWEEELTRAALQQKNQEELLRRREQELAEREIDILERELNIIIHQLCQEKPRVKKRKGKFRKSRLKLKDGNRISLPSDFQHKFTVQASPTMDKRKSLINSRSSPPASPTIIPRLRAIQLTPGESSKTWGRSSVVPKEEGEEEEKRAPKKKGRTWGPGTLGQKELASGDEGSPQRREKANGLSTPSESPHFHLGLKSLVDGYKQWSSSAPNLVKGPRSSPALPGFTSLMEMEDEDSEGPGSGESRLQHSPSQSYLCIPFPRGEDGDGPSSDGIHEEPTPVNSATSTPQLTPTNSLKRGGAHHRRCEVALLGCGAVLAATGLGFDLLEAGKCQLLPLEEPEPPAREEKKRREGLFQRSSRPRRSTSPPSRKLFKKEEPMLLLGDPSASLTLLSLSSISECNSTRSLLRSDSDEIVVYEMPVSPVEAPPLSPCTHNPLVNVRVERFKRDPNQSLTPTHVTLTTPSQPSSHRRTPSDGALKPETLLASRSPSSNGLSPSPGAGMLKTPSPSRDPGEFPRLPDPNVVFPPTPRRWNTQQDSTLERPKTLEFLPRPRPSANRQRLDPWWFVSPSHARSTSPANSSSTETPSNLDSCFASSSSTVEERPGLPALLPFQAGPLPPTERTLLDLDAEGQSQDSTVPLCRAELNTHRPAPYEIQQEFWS
Sequence of Casein kinase I isoform alpha (Homo sapiens) (P48729 2-337 limits assumed): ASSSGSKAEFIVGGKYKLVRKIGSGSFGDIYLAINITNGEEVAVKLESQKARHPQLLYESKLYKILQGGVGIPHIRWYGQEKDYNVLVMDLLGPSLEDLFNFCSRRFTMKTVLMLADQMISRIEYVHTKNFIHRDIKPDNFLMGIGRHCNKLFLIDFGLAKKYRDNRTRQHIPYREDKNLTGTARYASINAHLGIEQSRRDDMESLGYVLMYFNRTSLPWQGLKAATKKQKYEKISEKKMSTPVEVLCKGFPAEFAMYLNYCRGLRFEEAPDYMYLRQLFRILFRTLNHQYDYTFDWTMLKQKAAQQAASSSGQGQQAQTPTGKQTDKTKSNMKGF
Sequence of Cyclin-dependent kinase 5/CDK5 activator 1 (Homo sapiens) (Q00535 whole entry, canonical isoform): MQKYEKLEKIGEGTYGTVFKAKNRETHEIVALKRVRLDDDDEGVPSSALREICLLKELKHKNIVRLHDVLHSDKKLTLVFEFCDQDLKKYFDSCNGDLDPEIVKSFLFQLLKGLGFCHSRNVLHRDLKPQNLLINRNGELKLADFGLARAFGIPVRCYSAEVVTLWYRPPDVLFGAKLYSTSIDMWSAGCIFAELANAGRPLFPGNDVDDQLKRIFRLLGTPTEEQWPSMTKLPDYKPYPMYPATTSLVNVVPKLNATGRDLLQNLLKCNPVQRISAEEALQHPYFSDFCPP
Sequence of Cyclin-dependent kinase 5/CDK5 activator 1 (Homo sapiens) (Q15078 99-307 partner limits assumed): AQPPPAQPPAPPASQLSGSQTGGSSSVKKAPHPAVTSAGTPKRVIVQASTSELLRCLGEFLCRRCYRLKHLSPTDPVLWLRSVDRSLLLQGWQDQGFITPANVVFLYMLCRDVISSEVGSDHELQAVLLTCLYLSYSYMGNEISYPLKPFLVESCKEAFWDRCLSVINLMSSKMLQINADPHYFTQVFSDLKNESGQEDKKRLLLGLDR

Question: For `Cc1cc(N/N=C/c2ccncc2)nc2ccccc12`, which Activity [1] is on record?
Answer: 81%

Question: And the Activity [2]?
Answer: 77%

Question: What about the Activity [3] of the same compound?
Answer: 12%

Question: And the Activity [4]?
Answer: 97%

Question: And the viability at 24 h, 10 µM [5]?
Answer: 85%
